Key:
Type in all cases: in vivo
[1] = system: barnyardgrass (Echinochloa crus-galli); assay: Test E flooded paddy water application; details: Flood, 21 days, scale 0 to 100 (0 no effect, 100 complete control)
Summary of the method: (§1)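 Greenhouse pots of Tama silt loam with weeds and rice at 2.0–2.5-leaf stage, flooded to 3 cm; compounds applied directly into paddy water, depth maintained. Visual rating versus untreated controls after 21 days, 0 (no effect) to 100 (complete control); 29.5/26.7 °C, 16-h photoperiod.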

[2] = system: water seeded rice seedlings (Oryza sativa cv. ‘Japonica-M202’); assay: Test E flooded paddy water application; details: Flood, 21 days, scale 0 to 100 (0 no effect, 100 complete control)
Summary of the method: as §1

[3] = system: late watergrass (Echinochloa oryzicola); assay: Test E flooded paddy water application; details: Flood, 21 days, scale 0 to 100 (0 no effect, 100 complete control)
Summary of the method: as §1

[4] = system: rice flatsedge (Cyperus iria); assay: Test E flooded paddy water application; details: Flood, 21 days, scale 0 to 100 (0 no effect, 100 complete control)
Summary of the method: as §1

[5] = system: junglerice (Echinochloa colona); assay: Test E flooded paddy water application; details: Flood, 21 days, scale 0 to 100 (0 no effect, 100 complete control)
Summary of the method: as §1

[6] = system: bearded (brdd.) sprangletop (Leptochloa fusca ssp. fascicularis); assay: Test E flooded paddy water application; details: Flood, 21 days, scale 0 to 100 (0 no effect, 100 complete control)
Summary of the method: as §1

[7] = system: ducksalad (Heteranthera limosa); assay: Test E flooded paddy water application; details: Flood, 21 days, scale 0 to 100 (0 no effect, 100 complete control)
Summary of the method: as §1

[8] = system: transplanted rice seedlings (Oryza sativa cv. ‘Japonica-M202’); assay: Test E flooded paddy water application; details: Flood, 21 days, scale 0 to 100 (0 no effect, 100 complete control)
Summary of the method: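 Response scored visually on a 0–100 scale (100 = complete control) at 21 days against untreated pots. Treatment was into paddy water 3 cm deep over silt loam, with plants at the 2.0–2.5-leaf stage, grown under 16-h light at 29.5/26.7 °C day/night.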

[9] = system: early watergrass (Echinochloa oryzoides); assay: Test E flooded paddy water application; details: Flood, 21 days, scale 0 to 100 (0 no effect, 100 complete control)
Summary of the method: as §1

[10] = system: smallflower umbrella sedge (Cyperus difformis); assay: Test E flooded paddy water application; details: Flood, 21 days, scale 0 to 100 (0 no effect, 100 complete control)
Summary of the method: as §1

[11] = system: purple redstem (Ammannia coccinea); assay: Test E flooded paddy water application; details: Flood, 21 days, scale 0 to 100 (0 no effect, 100 complete control)
Summary of the method: as §1

[12] = system: barnyardgrass (Echinochloa crus-galli); assay: Test A pre/postemergence
Summary of the method: (§2)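 Greenhouse herbicide test with preemergence directed soil spray and postemergence foliar spray at the 1- to 2-leaf stage; visual control rating 0–100 versus untreated at ~10 days.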

[13] = system: redroot pigweed (Amaranthus retroflexus); assay: Test A pre/postemergence
Summary of the method: as §2

[14] = system: morningglory (Ipomoea spp.); assay: Test A pre/postemergence
Summary of the method: as §2

[15] = system: crabgrass (Digitaria sanguinalis); assay: Test A pre/postemergence
Summary of the method: as §2

[16] = system: giant foxtail (Setaria faberi); assay: Test A pre/postemergence
Summary of the method: as §2

[17] = system: velvetleaf (Abutilon theophrasti); assay: Test A pre/postemergence
Summary of the method: as §2

[18] = Postemergence, 125 g ai/ha, 0 to 100 scale (0 no effect, 100 complete control)
[19] = Postemergence, 500 g ai/ha, 0 to 100 scale (0 no effect, 100 complete control)
[20] = Preemergence, 125 g ai/ha, 0 to 100 scale where 0 is no effect and 100 is complete control, approximately ten days
[21] = Preemergence, 500 g ai/ha, 0 to 100 scale where 0 is no effect and 100 is complete control, approximately ten days

For CCOC(=O)c1nc(-c2ccc(Cl)cc2F)nc(N)c1Br [Compound 69], the “Barnyardgrass plant response rating” value ([1]; 32 g ai/ha) was 0, the “Barnyardgrass plant response rating” value ([1]; 64 g ai/ha) was 0 and the “Barnyardgrass plant response rating” value ([1]; 125 g ai/ha) was 0. For the same compound, the “Plant response rating, Barnyardgrass” value ([1]; 16 g ai/ha) was 0, the “Rice, Water Seeded plant response rating” value ([2]; 32 g ai/ha) was 0 and the “Rice, Water Seeded plant response rating” value ([2]; 64 g ai/ha) was 0. The “Rice, Water Seeded plant response rating” value ([2]; 125 g ai/ha) was 0, the “Rice, Water Seeded plant response rating” value ([2]; 250 g ai/ha) was 0 and the “Plant response rating, Rice, Water Seeded” value ([2]; 16 g ai/ha) was 0. For the same compound, the “Watergrass, Late plant response rating” value ([3]; 32 g ai/ha) was 0, the “Watergrass, Late plant response rating” value ([3]; 64 g ai/ha) was 0 and the “Watergrass, Late plant response rating” value ([3]; 125 g ai/ha) was 0. The “Watergrass, Late plant response rating” value ([3]; 250 g ai/ha) was 0, the “Plant response rating, Watergrass, Late” value ([3]; 16 g ai/ha) was 0 and the “Flatsedge, Rice plant response rating” value ([4]; 32 g ai/ha) was 70. The “Flatsedge, Rice plant response rating” value ([4]; 64 g ai/ha) was 100, the “Flatsedge, Rice plant response rating” value ([4]; 125 g ai/ha) was 100 and the “Flatsedge, Rice plant response rating” value ([4]; 250 g ai/ha) was 100. For the same compound, the “Plant response rating, Flatsedge, Rice” value ([4]; 16 g ai/ha) was 65, the “Junglerice plant response rating” value ([5]; 32 g ai/ha) was 0 and the “Junglerice plant response rating” value ([5]; 64 g ai/ha) was 0. The “Junglerice plant response rating” value ([5]; 125 g ai/ha) was 0, the “Junglerice plant response rating” value ([5]; 250 g ai/ha) was 0 and the “Plant response rating, Junglerice” value ([5]; 16 g ai/ha) was 0. For the same compound, the “Sprangletop, Brdd. plant response rating” value ([6]; 32 g ai/ha) was 0, the “Sprangletop, Brdd. plant response rating” value ([6]; 64 g ai/ha) was 0 and the “Sprangletop, Brdd. plant response rating” value ([6]; 125 g ai/ha) was 0. For the same compound, the “Sprangletop, Brdd. plant response rating” value ([6]; 250 g ai/ha) was 0, the “Plant response rating, Sprangletop, Brdd.” value ([6]; 16 g ai/ha) was 0 and the “Ducksalad plant response rating” value ([7]; 32 g ai/ha) was 100. The “Ducksalad plant response rating” value ([7]; 64 g ai/ha) was 100, the “Ducksalad plant response rating” value ([7]; 125 g ai/ha) was 100 and the “Ducksalad plant response rating” value ([7]; 250 g ai/ha) was 100. The “Plant response rating, Ducksalad” value ([7]; 16 g ai/ha) was 95, the “Rice, Transplanted plant response rating” value ([8]; 32 g ai/ha) was 0 and the “Rice, Transplanted plant response rating” value ([8]; 64 g ai/ha) was 0. For the same compound, the “Rice, Transplanted plant response rating” value ([8]; 125 g ai/ha) was 0, the “Rice, Transplanted plant response rating” value ([8]; 250 g ai/ha) was 0 and the “Plant response rating, Rice, Transplanted” value ([8]; 16 g ai/ha) was 0. The “Watergrass, Early plant response rating” value ([9]; 32 g ai/ha) was 0, the “Watergrass, Early plant response rating” value ([9]; 64 g ai/ha) was 0 and the “Watergrass, Early plant response rating” value ([9]; 125 g ai/ha) was 0. The “Watergrass, Early plant response rating” value ([9]; 250 g ai/ha) was 0, the “Plant response rating, Watergrass, Early” value ([9]; 16 g ai/ha) was 0 and the “Sedge, Umbrella plant response rating” value ([10]; 32 g ai/ha) was 0. For the same compound, the “Sedge, Umbrella plant response rating” value ([10]; 64 g ai/ha) was 30, the “Sedge, Umbrella plant response rating” value ([10]; 125 g ai/ha) was 90 and the “Sedge, Umbrella plant response rating” value ([10]; 250 g ai/ha) was 100. The “Plant response rating, Sedge, Umbrella” value ([10]; 16 g ai/ha) was 0, the “Redstem plant response rating” value ([11]; 32 g ai/ha) was 0 and the “Redstem plant response rating” value ([11]; 64 g ai/ha) was 0. For the same compound, the “Redstem plant response rating” value ([11]; 125 g ai/ha) was 0, the “Redstem plant response rating” value ([11]; 250 g ai/ha) was 30 and the “Plant response rating, Redstem” value ([11]; 16 g ai/ha) was 0. For the same compound, the “Plant response rating, Barnyardgrass” value [12, 18] was 0, the “Plant response rating, Barnyardgrass” value [12, 19] was 5 and the “Plant response rating, Barnyardgrass” value [12, 20] was 0. For the same compound, the “Plant response rating, Barnyardgrass” value [12, 21] was 15, the “Plant response rating, Pigweed” value [13, 18] was 90 and the “Plant response rating, Pigweed” value [13, 19] was 90. The “Plant response rating, Pigweed” value [13, 20] was 65, the “Plant response rating, Pigweed” value [13, 21] was 85 and the “Plant response rating, Morningglory” value [14, 18] was 75. The “Plant response rating, Morningglory” value [14, 19] was 90, the “Plant response rating, Morningglory” value [14, 20] was 0 and the “Plant response rating, Morningglory” value [14, 21] was 0. The “Plant response rating, Crabgrass” value [15, 18] was 20, the “Plant response rating, Crabgrass” value [15, 19] was 40 and the “Plant response rating, Crabgrass” value [15, 20] was 50. The “Plant response rating, Crabgrass” value [15, 21] was 75, the “Plant response rating, Foxtail, Giant” value [16, 18] was 0 and the “Plant response rating, Foxtail, Giant” value [16, 19] was 55. The “Plant response rating, Foxtail, Giant” value [16, 20] was 10, the “Plant response rating, Foxtail, Giant” value [16, 21] was 50 and the “Plant response rating, Velvetleaf” value [17, 18] was 85. For the same compound, the “Plant response rating, Velvetleaf” value [17, 19] was 90, the “Plant response rating, Velvetleaf” value [17, 20] was 35 and the “Plant response rating, Velvetleaf” value [17, 21] was 65.

From US8802597B2, “Herbicidal pyrimidines” (E I du Pont de Nemours and Company, priority 2003, dated 2014)
